Legend:
[1] = 101.33 kPa, Liquid
[2] = xn = mol fraction of the nth substance listed; settings: 101.3 kPa, Liquid

CCCCN(CCCC)CCCC [tributylamine]
[1]
Settings | mass density [kg/m3] | viscosity [mPa·s]
303.15 K | 770.21 | 1.167
313.15 K | 763.11 | 0.97

CCCN(CCC)CCC [tripropylamine] + ClC(Cl)Cl
[2]
Settings | mass density, 303.15 K [kg/m3] | mass density, 313.15 K [kg/m3] | viscosity, 303.15 K [mPa·s] | viscosity, 313.15 K [mPa·s]
x1 = 0.0106 | 1453.58 | 1431.77 | 0.531 | 0.476
x1 = 0.0206 | 1437.45 | 1416.02 | 0.541 | 0.48
x1 = 0.032 | 1419.7 | 1398.73 | 0.546 | 0.485
x1 = 0.0396 | 1407.99 | 1387.54 | 0.554 | 0.489
x1 = 0.0509 | 1391.16 | 1370.93 | 0.563 | 0.493
x1 = 0.0596 | 1378.63 | 1358.79 | 0.568 | 0.501
x1 = 0.0693 | 1364.78 | 1345.21 | 0.579 | 0.504
x1 = 0.0787 | 1351.78 | 1332.44 | 0.59 | 0.511
x1 = 0.0883 | 1338.63 | 1319.39 | 0.598 | 0.516

CCCCN(CCCC)CCCC [tributylamine] + ClC(Cl)Cl
[2]
Settings | mass density, 303.15 K [kg/m3] | mass density, 313.15 K [kg/m3] | viscosity, 303.15 K [mPa·s] | viscosity, 313.15 K [mPa·s]
x1 = 0.0102 | 1450.1 | 1428.49 | 0.533 | 0.479
x1 = 0.0205 | 1430.19 | 1409.15 | 0.545 | 0.488
x1 = 0.0308 | 1410.92 | 1390.4 | 0.557 | 0.496
x1 = 0.0404 | 1393.58 | 1373.58 | 0.569 | 0.504
x1 = 0.0505 | 1376.08 | 1356.5 | 0.583 | 0.513
x1 = 0.0598 | 1360.44 | 1341.35 | 0.593 | 0.522
x1 = 0.0695 | 1344.77 | 1326.07 | 0.606 | 0.529
x1 = 0.0799 | 1328.42 | 1310.05 | 0.615 | 0.538
x1 = 0.0856 | 1319.72 | 1301.56 | 0.621 | 0.545
